This assay relates to HCT116 colorectal cancer cells. In words: Cisplatin sensitization assay (96 h cell viability MTS).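 Further: Test-compound concentration that lowers the Cisplatin IC50 by a set fold.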 It counts as cell-based. The conditions noted are these: compound and Cisplatin added simultaneously, Cisplatin sensitization value. Put shortly:
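Compound and cisplatin added together as a full matrix of 2-fold serial dilutions from a top final concentration of 10 μM; cells incubated 96 h at 37° C, 5% CO2. Viability then read by MTS after 1 h further incubation; sensitization value reported in μM bins.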

As for `CCOc1ccncc1NC(=O)c1c(N)nn2cc(Cl)cnc12` [I-O-56, 2-amino-6-chloro-N-(4-ethoxypyridin-3-yl)pyrazolo[1,5-a]pyrimidine-3-carboxamide], the “Cisplatin Sensitization Assay” value is “+++ (Cisplatin sensitization value of <0.02 μM)”.

Take `COc1ccncc1NC(=O)c1c(N)nn2cc(Cl)cnc12` [I-O-57, 2-amino-6-chloro-N-(4-methoxypyridin-3-yl)pyrazolo[1,5-a]pyrimidine-3-carboxamide]: the “Cisplatin Sensitization Assay” value is listed as “+++ (Cisplatin sensitization value of <0.02 μM)”.

`Nc1nn2cc(Cl)cnc2c1C(=O)Nc1cnccc1O[C@H]1CCOC1` [I-O-58, (S)-2-amino-6-chloro-N-(4-((tetrahydrofuran-3-yl)oxy)pyridin-3-yl)pyrazolo[1,5-a]pyrimidine-3-carboxamide]: the “Cisplatin Sensitization Assay” value is reported as “+++ (Cisplatin sensitization value of <0.02 μM)”.

In the case of `Nc1nn2cc(Cl)cnc2c1C(=O)Nc1cnccc1OCC(F)(F)F` [I-O-59, 2-amino-6-chloro-N-(4-(2,2,2-trifluoroethoxy)pyridin-3-yl)pyrazolo[1,5-a]pyrimidine-3-carboxamide], the “Cisplatin Sensitization Assay” value is on record as “+++ (Cisplatin sensitization value of <0.02 μM)”.

Turning to `Nc1nn2cc(Cl)cnc2c1C(=O)Nc1cnccc1OCCN1CCOCC1` [I-O-60, 2-amino-6-chloro-N-(4-(2-morpholinoethoxy)pyridin-3-yl)pyrazolo[1,5-a]pyrimidine-3-carboxamide], the “Cisplatin Sensitization Assay” value is “++ (Cisplatin sensitization value>0.02 μM but <0.2 μM)”.

As to `Nc1nn2cc(Cl)cnc2c1C(=O)Nc1cnccc1OC1CCOCC1` [I-O-61, 2-amino-6-chloro-N-(4-((tetrahydro-2H-pyran-4-yl)oxy)pyridin-3-yl)pyrazolo[1,5-a]pyrimidine-3-carboxamide], the “Cisplatin Sensitization Assay” value is given as “+++ (Cisplatin sensitization value of <0.02 μM)”.

For `Nc1nn2cc(Cl)cnc2c1C(=O)Nc1cnccc1OC1CN2CCC1CC2` (stereo not drawn) [I-O-62, 2-amino-6-chloro-N-(4-(quinuclidin-3-yloxy)pyridin-3-yl)pyrazolo[1,5-a]pyrimidine-3-carboxamide], the “Cisplatin Sensitization Assay” value was “+++ (Cisplatin sensitization value of <0.02 μM)”.

For `CN1CC[C@@H](Oc2ccncc2NC(=O)c2c(N)nn3cc(Cl)cnc23)C1` [I-O-63, (R)-2-amino-6-chloro-N-(4-((1-methylpyrrolidin-3-yl)oxy)pyridin-3-yl)pyrazolo[1,5-a]pyrimidine-3-carboxamide], the “Cisplatin Sensitization Assay” value is listed as “++ (Cisplatin sensitization value>0.02 μM but <0.2 μM)”.

For the molecule `CN1CCC(Oc2ccncc2NC(=O)c2c(N)nn3cc(Cl)cnc23)CC1` [I-O-64, 2-amino-6-chloro-N-(4-((1-methylpiperidin-4-yl)oxy)pyridin-3-yl)pyrazolo[1,5-a]pyrimidine-3-carboxamide], the “Cisplatin Sensitization Assay” value is given as “+++ (Cisplatin sensitization value of <0.02 μM)”.

On to `Nc1nn2cc(Cl)cnc2c1C(=O)Nc1cnccc1OC1CCCOC1` (stereo not drawn) [I-O-65, 2-amino-6-chloro-N-(4-((tetrahydro-2H-pyran-3-yl)oxy)pyridin-3-yl)pyrazolo[1,5-a]pyrimidine-3-carboxamide], for which the “Cisplatin Sensitization Assay” value is on record as “+++ (Cisplatin sensitization value of <0.02 μM)”.

In the case of `Nc1nn2cc(Cl)cnc2c1C(=O)Nc1cnccc1OCCO` [I-O-66, 2-amino-6-chloro-N-(4-(2-hydroxyethoxy)pyridin-3-yl)pyrazolo[1,5-a]pyrimidine-3-carboxamide], the “Cisplatin Sensitization Assay” value was “+ (Cisplatin sensitization value>0.2 μM but <5 μM)”.

For the molecule `COCCN1CCC[C@H](Oc2ccncc2NC(=O)c2c(N)nn3cc(Cl)cnc23)C1` [I-O-67, (S)-2-amino-6-chloro-N-(4-((1-(2-methoxyethyl)piperidin-3-yl)oxy)pyridin-3-yl)pyrazolo[1,5-a]pyrimidine-3-carboxamide], the “Cisplatin Sensitization Assay” value is recorded as “++ (Cisplatin sensitization value>0.02 μM but <0.2 μM)”.

(Values after patent US11370798B2 (Vertex Pharmaceuticals Incorporated, priority 2012, dated 2022).)
